Data from article PMC5962642, “Dynamic imaging of adaptive stress response pathway activation for prediction of drug induced liver injury” (Archives of Toxicology, 2018).

How the values were obtained:
[1] = C-max obtained from FDA or literature; ref per compound (FDA, Dailymed, Xu, O’Brien, Khetani, Regenthal, Gustafsson, Dawson, Ogutu, Patel, Schmidt, Ravic, Keisu, Hu, Wagner); cited from earlier work
[2] = ref livertox.nih.gov database; cited from earlier work
[3] = ref Chen et al. [2016], cited from earlier work; for DILI con. (DILI-concern labeling): FDA DILI labeling; for Hepa. (hepatotoxicity class): FDA labeling in eight classes of hepatotoxicity
[4] = two classes made from the FDA DILI-concern labeling

SMILES | Cmax [1] | Metab (metabolic potential) [2] | DILI con. (DILI-concern labeling) [3] | Hepa. (hepatotoxicity class) [3] | Severity class [4]
O=c1n(CCCN2CCN(c3cccc(Cl)c3)CC2)nc2ccccn12 [Trazodone] | 5.06 µM | YES | Less-DC | 5 | –
CC(C(=O)O)c1ccc(-c2ccccc2)c(F)c1 (stereo not shown) [Flurbiprofen] | 57.3 µM | YES | Amb.-DC | 3 | –
CS(=O)(=O)Nc1ccc([N+](=O)[O-])cc1Oc1ccccc1 [Nimesulide] | 21.1 µM | YES | – | – | –
CC(C(=O)O)c1cccc(Oc2ccccc2)c1 (stereo not shown) [Fenoprofen] | 58.2 µM | YES | Most-DC | 8 | –
CCc1ccc(CCOc2ccc(CC3SC(=O)NC3=O)cc2)nc1 (stereo not shown) [Pioghtazone] | 2.95 µM | – | Less-DC | 3 | Non-sev.
CN(C)C/C=C(/c1ccc(Br)cc1)c1cccnc1 [Zimehdine] | – | – | Most-DC | 8 | Sev.
C[N+](C)(C)CC(=O)O [Betaine] | 940 µM | – | No-DC | 1 | Non-sev.
CN1C(=O)CCS(=O)(=O)C1c1ccc(Cl)cc1 (stereo not shown) [Chlormezanone] | 10.6 µM | – | Most-DC | 8 | Sev.
C[N+](C)(C)CCOC(=O)CCC(=O)OCC[N+](C)(C)C [Succinylcholine] | 138 µM | – | No-DC | 1 | Non-sev.
CO[C@H]1/C=C/O[C@@]2(C)Oc3c(C)c(O)c4c(O)c(c(/C=N/N5CCN(C)CC5)c(O)c4c3C2=O)NC(=O)/C(C)=C\C=C\[C@H](C)[C@H](O)[C@@H](C)[C@@H](O)[C@@H](C)[C@H](OC(C)=O)[C@@H]1C [Rifampicin] | 15 µM | YES | Most-DC | – | –
Cc1c(C)c2c(c(C)c1O)CCC(C)(COc1ccc(CC3SC(=O)NC3=O)cc1)O2 (stereo not shown) [Troghtazone] | – | YES | Most-DC | 8 | Sev.
NC[C@H]1O[C@H](O[C@H]2[C@H](O)[C@@H](O[C@H]3O[C@H](CO)[C@@H](O)[C@H](N)[C@H]3O)[C@H](N)C[C@@H]2N)[C@H](O)[C@@H](O)[C@@H]1O [Kanamycin] | 60.1 µM | – | – | – | Non-sev.
CCOC(=O)C(C)(C)Oc1ccc(Cl)cc1 [Clofibrate] | 470 µM | YES | Less-DC | 3 | –
COc1cc(NC(C)CCCN)c2ncccc2c1 (stereo not shown) [Primaquine] | – | – | No-DC | 1 | Non-sev.
CC(O)(CS(=O)(=O)c1ccc(F)cc1)C(=O)Nc1ccc(C#N)c(C(F)(F)F)c1 (stereo not shown) [Bicalutamide] | 1.97 µM | YES | – | 8 | –
Cc1cccc(C)c1OCC(C)N (stereo not shown) [Mexiletine] | 3.83 µM | YES | – | 3 | –
COc1cc(C(=O)NS(=O)(=O)c2ccccc2C)ccc1Cc1cn(C)c2ccc(NC(=O)OC3CCCC3)cc12 [Zafirlukast] | 1.21 µM | YES | Most-DC | 8 | –
Nc1ncnc2c1ncn2CCOCP(=O)(O)O [Adefovir] | 0.085 µM | – | Less-DC | 2 | Non-sev.
Oc1ncnc2[nH]ncc12 [Allopunnol] | 13.8 µM | – | Most-DC | 8 | Sev.
CSc1ccc2c(c1)N(CCC1CCCCN1C)c1ccccc1S2 (stereo not shown) [Thiondazine] | 0.55 µM | YES | – | – | Non-sev.

SMILES | Cmax [1] | Metab (metabolic potential) [2] | DILI con. (DILI-concern labeling) [3] | Hepa. (hepatotoxicity class) [3] | Severity class [4]
CC[N+](C)(C)c1cccc(O)c1 [Edrophonium] | 60.2 µM | – | – | 1 | Non-sev.
CNC(=C[N+](=O)[O-])NCCSCc1csc(CN(C)C)n1 [Nizatidine] | 4 µM | YES | Less-DC | 5 | –
CCC1(c2ccccc2)C(=O)NC(=O)NC1=O [Phenobarbital] | 146 µM | – | – | 3 | Non-sev.
COc1ccc2[nH]c([S+]([O-])Cc3ncc(C)c(OC)c3C)nc2c1 (stereo not shown) [Omeprazole] | 4.7 µM | YES | Less-DC | 4 | –
CC(C)NNC(=O)c1ccncc1 [Iboniazid] | 76.6 µM | YES | Most-DC | 8 | Sev.
C[C@H]1O[C@H](O[C@H]2[C@H](O)[C@@H](O)[C@@H](O[C@H]3[C@H](O)[C@@H](O)C(O)O[C@@H]3CO)O[C@@H]2CO)[C@H](O)[C@@H](O)[C@@H]1N[C@H]1C=C(CO)[C@@H](O)[C@H](O)[C@H]1O (stereo partly shown) [Acarbose] | 0.15 µM | – | – | – | Sev.
Br.COc1ccc2c(c1)[C@]13CCCC[C@@H]1[C@H](C2)N(C)CC3 [Dextromethorphan hbr] | 0.022 µM | – | No-DC | – | Non-sev.
CN(C)CCCN1c2ccccc2CCc2ccccc21 [Imipramine] | 0.29 µM | YES | – | – | –
CCC1(c2ccccc2)C(=O)NCNC1=O [Primidone] | 4.67 µM | YES | – | 1 | –
NC(=O)c1ncn([C@@H]2O[C@H](CO)[C@@H](O)[C@H]2O)n1 [Ribavirin] | 2.61 µM | YES | Amb.-DC | – | –
CCOC(=O)[C@H](CCc1ccccc1)N[C@@H](C)C(=O)N1CCC[C@H]1C(=O)O [Enalapril] | 0.4 µM | YES | Less-DC | 7 | –
CN(C)C(=N)N=C(N)N [Metformin] | – | YES | Less-DC | 1 | –
O=C1NC(=O)C(c2ccccc2)(c2ccccc2)N1 [Phenytoin] | 21.7 µM | YES | Most-DC | 8 | –
O=C(CCCN1CCC(O)(c2ccc(Cl)cc2)CC1)c1ccc(F)cc1 [Haloperidol] | 0.005 µM | YES | – | 5 | –
C=CC[C@@H]1/C=C(\C)C[C@H](C)C[C@H](OC)[C@H]2O[C@@](O)(C(=O)C(=O)N3CCCC[C@H]3C(=O)O[C@H](/C(C)=C/[C@@H]3CC[C@@H](O)[C@H](OC)C3)[C@H](C)[C@@H](O)CC1=O)[C@H](C)C[C@@H]2OC [Tacrolimus] | – | YES | Less-DC | 5 | –
COC1=CC(=O)C[C@@H](C)[C@]12Oc1c(Cl)c(OC)cc(OC)c1C2=O [Griseofulvin] | 4.54 µM | YES | – | – | –
NC(N)=Nc1nc(CSCCC(N)=NS(N)(=O)=O)cs1 [Famotidine] | 0.308 µM | YES | Less-DC | 3 | –
CN/C(=N/CCSCc1nc[nH]c1C)NC#N [Cimetidine] | 11.9 µM | YES | Less-DC | 2 | –
OC(CCN1CCCC1)(c1ccccc1)C1CCCCC1 (stereo not shown) [Procychdine] | – | – | – | – | Non-sev.
